Source: the NIST ThermoML archive (doi:10.1021/je0600808)

What was measured:
[1] = 101.33 kPa, Liquid
[2] = xn = mol fraction of the nth substance listed; conditions: 101 kPa, Liquid

CCCCCO [pentan-1-ol]
[1]
Conditions	mass density [kg/m3]	viscosity [mPa·s]
293.15 K	814.51	4.117
298.15 K	810.73	3.556
303.15 K	806.77	3.06
313.15 K	799.05	2.332
323.15 K	789.81	1.822
333.15 K	781.81	1.44
343.15 K	772.84	1.146
353.15 K	764.79	0.931
363.15 K	757.17	0.767

CCOC(=O)OCC [diethyl carbonate] + CCCCO
[2]
Conditions	mass density, x1 = 0.1016 [kg/m3]	mass density, x1 = 0.2023 [kg/m3]	mass density, x1 = 0.2974 [kg/m3]	viscosity, x1 = 0.1016 [mPa·s]	viscosity, x1 = 0.2023 [mPa·s]	viscosity, x1 = 0.2974 [mPa·s]
293.15 K	830.56	849.89	867.23	2.161	1.681	1.38
298.15 K	826.34	845.4	862.6	1.909	1.504	1.254
303.15 K	821.75	840.53	857.48	1.685	1.339	1.13
313.15 K	812.55	831.22	847.88	1.345	1.091	0.932
323.15 K	804.95	822.83	838.91	1.097	0.906	0.785
333.15 K	795.85	813.37	829.07	0.904	0.761	0.668
343.15 K	784.94	802.09	817.6	0.749	0.642	0.572
353.15 K	775.15	792.01	807.21	0.63	0.549	0.496
363.15 K	766.42	782.78	797.61	0.536	0.475	0.434

CCCO [propan-1-ol]
[1]
Conditions	mass density [kg/m3]	viscosity [mPa·s]
293.15 K	803.62	2.238
298.15 K	799.41	1.981
303.15 K	795.27	1.745
313.15 K	786.62	1.381
323.15 K	773.91	1.115
333.15 K	767.31	0.907
343.15 K	755.95	0.742
353.15 K	748.41	0.615
363.15 K	739.7	0.515

CCOC(=O)OCC [diethyl carbonate] + CCCCCO
[2]
Conditions	mass density, x1 = 0.1016 [kg/m3]	mass density, x1 = 0.2056 [kg/m3]	mass density, x1 = 0.2991 [kg/m3]	viscosity, x1 = 0.1016 [mPa·s]	viscosity, x1 = 0.2056 [mPa·s]	viscosity, x1 = 0.2991 [mPa·s]
293.15 K	831.8	849.16	864.58	2.879	2.155	1.735
298.15 K	827.59	844.75	859.91	2.522	1.907	1.549
303.15 K	823.06	840.03	854.97	2.206	1.69	1.386
313.15 K	814.72	831.26	845.78	1.723	1.351	1.132
323.15 K	805.16	821.48	835.87	1.383	1.109	0.939
333.15 K	796.72	812.44	826.67	1.122	0.918	0.79
343.15 K	787.31	802.62	816.48	0.919	0.766	0.67
353.15 K	778.85	793.74	807.26	0.764	0.65	0.576
363.15 K	770.78	785.19	798.3	0.644	0.557	0.501

CCCCO [butan-1-ol]
[1]
Conditions	mass density [kg/m3]	viscosity [mPa·s]
293.15 K	809.82	2.963
298.15 K	806.06	2.619
303.15 K	802.03	2.298
313.15 K	793.29	1.786
323.15 K	786.55	1.421
333.15 K	777.81	1.137
343.15 K	767.03	0.92
353.15 K	757.52	0.759
363.15 K	749.38	0.63

CCOC(=O)OCC [diethyl carbonate] + CCCO
[2]
Conditions	mass density, x1 = 0.0993 [kg/m3]	mass density, x1 = 0.2003 [kg/m3]	mass density, x1 = 0.3011 [kg/m3]	viscosity, x1 = 0.0993 [mPa·s]	viscosity, x1 = 0.2003 [mPa·s]	viscosity, x1 = 0.3011 [mPa·s]
293.15 K	829.06	852	872.49	1.668	1.347	1.147
298.15 K	824.24	846.98	867.35	1.49	1.211	1.037
303.15 K	819.57	841.86	861.83	1.328	1.089	0.938
313.15 K	810.34	832.49	852.34	1.073	0.896	0.783
323.15 K	798.04	819.74	839.43	0.887	0.751	0.666
333.15 K	790.59	811.83	831	0.739	0.636	0.572
343.15 K	778.86	799.8	818.79	0.618	0.542	0.493
353.15 K	770.55	790.85	809.27	0.524	0.466	0.43
363.15 K	761.19	780.98	799	0.448	0.405	0.378

CCOC(=O)OCC [diethyl carbonate]
[1]
Conditions	mass density [kg/m3]	viscosity [mPa·s]
293.15 K	975	0.8
298.15 K	968.97	0.746
303.15 K	962.39	0.695
313.15 K	952.32	0.61
323.15 K	939.78	0.541
333.15 K	928.69	0.483
343.15 K	916.33	0.435
353.15 K	905.02	0.393
363.15 K	893.71	0.358
